Molecules are shown by their SMILES.

Assay type in all cases: cell-based
One experiment deals with cPLA2. The experiment can be described thus: cPLA2 activity assay in glutamate-treated neuron cultures from STEP KO mice. As to conditions: STEP KO mice neurons; 50 μM glutamate 20 min; MK801 5 μM or SB 203580 5 μM; 2 h after the insult. The procedure: (§1) Cell culture and stimulation: For cell culture studies adult WT male and female mice and STEP KO male and female mice were mated to generate timed pregnant female mice. The males were removed from the females after 24 h period, which was considered gestational day 1. Pregnancy was verified by the presence of vaginal plugs and/or weight gain. Primary neuronal cultures were obtained from 15-day-old mice embryos as described previously (Deep et al., 2019). Briefly, the striatum and the adjoining cortex was dissected, the tissue dissociated mechanically and resuspended in Dulbecco's modified Eagle's medium/F-12 (1:1) containing 5% fetal calf serum. […]
In FIG. 5A, neuron cultures from WT or STEP KO mice were treated with 50 μM glutamate (Glu) for 20 min and then maintained in its original medium for the specified time (2 h and 4 h). […] Cell lysates with equal amount of protein from each sample was analyzed for cPLA2 activity using enzymatic assay. Values are expressed as mean±SEM. *, indicates significant difference from untreated control in WT cultures (p<0.05); ^Δ, indicates significant difference from untreated control in STEP KO cultures (p<0.05); ^¶, significant difference from 20 min glutamate treatment in STEP KO cultures (p<0.05). […]

A further experiment has as its system COX2. Put plainly: COX2 protein level by immunoblot in glutamate-treated neuron cultures from STEP KO mice. The following applies: STEP KO mice neurons; 50 μM glutamate 20 min; post-glutamate time 2 h; MK801 5 μM, SB203580 5 μM, Bengamide B 500 nM, TAT-STEP-myc 4 μM. The procedure:
as §1, with “serum. Cells (6×10^6 cells/dish) were plated on poly-D-lysine-coated tissue culture dishes (BD Biosciences) and grown for 12-14 days at 37° C. in a humidified atmosphere (95:5% air:CO2 mixture). For receptor stimulation cells were treated with glutamate or NMDA for the indicated times and then processed for immunoblot analysis. Glycine concentration in the medium during glutamate treatment was 10 μM.” for “serum.”
In a parallel series of experiments, we further evaluated the expression of COX2, which is involved in the conversion of AA to prostanoids. […] Cell lysates with equal amount of protein from each sample was analyzed by immunoblotting with anti-COX2 (upper panel) or anti-β-tubulin (lower panel) antibodies. Quantification of COX2 is represented as mean±SEM. *, indicates significant difference from untreated control in STEP KO cultures (p<0.05); ^¶, indicates significant difference from glutamate treated STEP KO cultures (p<0.05).
FIGS. 9A-9D show the role of NFκB activation in glutamate induced COX2 expression and PGE2 release. […] (FIG. 9A-C) Cell lysates with equal amount of protein from each sample was analyzed by immunoblotting with (FIG. 9A, B) anti-IκB-α (upper panel) and anti-β-tubulin (lower panel) antibodies, or (C) anti-COX-2 (upper panel) and anti-β-tubulin (lower panel) antibodies. […] (FIG. 9D) Equal amount of culture medium from each sample was analyzed for PGE2 levels using ELISA. […]

The test system of a further experiment is PGE2. The experiment can be described thus: PGE2 release into culture medium by ELISA, glutamate-treated neuron cultures from STEP KO mice. The following applies: STEP KO mice neurons; 50 μM glutamate; 2 h; MK801 5 μM, SB203580 5 μM, CAY10404 100 nM, Bengamide B 500 nM. The protocol:
Cell culture and stimulation: For cell culture studies adult WT male and female mice and STEP KO male and female mice were mated to generate timed pregnant female mice. The males were removed from the females after 24 h period, which was considered gestational day 1. Pregnancy was verified by the presence of vaginal plugs and/or weight gain. Primary neuronal cultures were obtained from 15-day-old mice embryos as described previously (Deep et al., 2019). Briefly, the striatum and the adjoining cortex was dissected, the tissue dissociated mechanically and resuspended in Dulbecco's modified Eagle's medium/F-12 (1:1) containing 5% fetal calf serum. Cells (6×10^6 cells/dish) were plated on poly-D-lysine-coated tissue culture dishes (BD Biosciences) and grown for 12-14 days at 37° C. in a humidified atmosphere (95:5% air:CO2 mixture). For receptor stimulation cells were treated with glutamate or NMDA for the indicated times and then processed for immunoblot analysis. Glycine concentration in the medium during glutamate treatment was 10 μM. In some experiments, DL-2-amino-5-phosphonopentanoic acid (APV, 200 μM), MK-801 (5 μM), SB203580 (5 μM), CAY10404 (100 nM) or Bengamide B (500 nM) were added […] 10 min before addition of glutamate. Some cultures were treated with the TAT-STEP-myc peptide (4 μM) prior glutamate treatment.
For measurement of PGE2 and soluble CX3CL1 levels released from neurons, culture medium was collected from each experimental plate and centrifuged at 200 g for 5 min to remove cellular debris. […] PGE2 level was assessed using the PGE2 enzyme-linked immunosorbent assay (ELISA) kit (Cat #: K051-H1) from Arbor assays (Ann Arbor, Mich., USA), according to the manufacturer's instructions. Soluble CX3CL1 level was assessed using the ELISA kit (Cat #: MCX310) from R&D systems (Minneapolis, Minn., USA), according to the manufacturer's instructions.
To evaluate the effect of STEP gene deletion on glutamate-mediated PGE2 release in subsequent studies neuron cultures from WT or STEP KO mice were treated with 50 μM glutamate (Glu) for 20 min and then maintained in its original medium for the specified times (post-glutamate time: 2 h and 4 h). […] Equal amount of culture medium from each sample was analyzed for PGE2 levels using ELISA. Values are expressed as mean±SEM. *, indicates significant difference from untreated control in STEP KO cultures (p<0.05); ^¶, indicates significant difference from glutamate treated STEP KO cultures (p<0.05). […]
FIGS. 9A-9D show the role of NFκB activation in glutamate induced COX2 expression and PGE2 release. […] Quantification of IκB-α and COX-2 are represented as mean±SEM. *, indicates significant difference from untreated control in STEP KO culture (p<0.05); ^¶, indicates significant difference from glutamate treated STEP KO culture. […]
A general note: An ELISA detects its analyte on a solid surface through an enzyme-linked reagent.

Another experiment concerns IκB-α. Put plainly: IκB degradation (NF-κB activation) by immunoblot in glutamate-treated neuron cultures from STEP KO mice. As to conditions: STEP KO mice neurons; 50 μM glutamate; 2 h. The procedure: as §1
Earlier studies have shown that the nuclear factor kappa B (NF-κB) is a key regulator of COX2 expression in different cell types (Yamamoto et al., 1995; Kaltschmidt et al., 2002; Guo et al., 2013; Ackerman et al., 2008; Shi et al., 2015), and the ionotropic glutamate receptors is one of the activators of NF-κB in neurons (Kaltschmidt et al., 2005). To clarify the role of NF-κB in glutamate-NMDAR induced activation of the COX-2-PGE2 signaling pathway in STEP KO mice neurons, we next evaluated the effect of glutamate on IκB degradation, a seminal step in NF-κB activation (Karin and Ben-Neriah 2000; Rajagopal et al., 2019). […]
On the technique in general: In western blotting, separated proteins are transferred to a membrane and probed.

In the case of `C[S+]([O-])c1ccc(-c2nc(-c3ccncc3)c(-c3ccc(F)cc3)[nH]2)cc1` (centres unmarked) [SB 203580, SB203580], the cPLA2 activity result in the experiment with cPLA2 is recorded as “significantly reduced”. Also, in the experiment on COX2, the “glutamate-induced increase in COX2 level” value is given as “attenuated”. Moreover, in the experiment with PGE2, the “glutamate-induced PGE2 release” value was “significantly reduced”. Further, the “glutamate-induced IκB degradation” value with IκB-α is “effectively blocked”.
On to `C[C@]12N[C@H](Cc3ccccc31)c1ccccc12` [MK801, MK-801], for which the cPLA2 activity entry with cPLA2 was “significantly reduced”. In the experiment on COX2, the “glutamate-induced increase in COX2 level” value is “attenuated”. The “glutamate-induced PGE2 release” value in the experiment with PGE2 is recorded as “significantly reduced”. In the experiment with IκB-α, the “glutamate-induced IκB degradation” value is “effectively blocked”.
In the case of `CS(=O)(=O)c1ccc(-c2noc(C(F)(F)F)c2-c2ccccc2)cc1` [CAY10404], the “glutamate-induced PGE2 release” value in the experiment with PGE2 is reported as “significantly reduced”.
Turning to `CCCCCCCCCCCCCC(=O)O[C@H]1CC[C@H](NC(=O)[C@H](OC)[C@H](O)[C@@H](O)[C@H](O)/C=C/C(C)C)C(=O)N(C)C1` [Bengamide B], the “glutamate-induced increase in COX2 level” value in the experiment on COX2 is on record as “attenuated”. Besides, the “glutamate-induced PGE2 release” value with PGE2 is “significant reduction”.

These data come from patent publication US20230130579A1, “REGULATION OF POST-ISCHEMIC INFLAMMATORY RESPONSE: A NOVEL FUNCTION OF TYROSINE PHOSPHATASE STEP” (UNM Rainforest Innovations, priority 2020, published 2023).
